# Tests used:
# [1] = tested on: viral vectors that replicate using WT HIV reverse transcriptase; test: single-round infectivity assay, luciferase reporter, vector with WT RT; type: cell-based, HIV-1; settings: Human immunodeficiency virus 1, broader panel table, SD in parentheses; read-out: EC50 WT (Table S1)
# Text: (§1) We examined the effects of rilpivirine and the analogues on HIV-1 replication using a previously described assay and report the concentrations at which luciferase reporter activity was reduced by half relative to uninhibited controls (EC50) with standard deviations in parentheses. In the assay, viral vectors that replicate using WT HIV reverse transcriptase or one of several mutants (L100I, K103N, V106A, E138K, Y181C, Y188L, H221Y and the double mutant K103N/Y181C) were used to infect cells in a single round assay. These mutants were chosen either because they are known NNRTI resistance mutations (L100I, K103N, Y181C, and the K103N/Y181C double mutant), they were selected in patients in rilpivirine clinical trials (E138K and H221Y), or they are positioned to make significant Van der Waals contacts with rilpivirine (V106A and Y188L). All compounds were initially screened against a panel that included at least one RT mutant from all three groups (WT, K103N, E138K, Y181C and Y188L). The cytotoxicity of the compounds was also determined to establish the therapeutic index of each of the compounds.
# (§2) Procedures for virion production and cell-based assay have been reported. Briefly, all cell cultures were maintained in Dulbecco’s modified Eagle’s medium (Invitrogen, Carlsbad, CA) with 5% (v/v) fetal bovine serum, 5% newborn calf serum, penicillin (50 units/mL) and streptomycin (50 μg/mL) (Quality Biological, Gaithersburg, MD). […]. Transfected cells were incubated at 37°C for 8 hrs, washed twice with PBS, fresh media was added and the cells were returned to the incubator for 48 hrs. The pNLNgoMIVR^+ΔEnv.LUC plasmid encodes the HIV-1 genome with an Env deletion and either WT HIV-1 RT, or one of the following mutants: L100I, K103N, V106A, E138K, Y181C, Y188L, H221Y, or K103N/Y181C. Supernatants from each plate were clarified by low-speed centrifugation (3,000xg for 20 min), then treated with 200 U DNase I (Roche Applied Science, Mannheim, Germany) at room temperature for 3 hours. Viral supernatants were stored at −20°C until used.
# (§3) One day prior to infection, 100 μL of human osteosarcoma (HOS) cells were added to each well of a 96-well plate at a density of 4x10^4 cells/mL. Plates were incubated overnight at 37°C. On the day of infection, 10X drug stocks were prepared by serial dilution in media from an initial 10 mM stock solution in DMSO. Cells in the 96-well plate were pre-treated by the addition of 22 μL of the appropriate drug stock and returned to the incubator for 3 hours. Thawed virus stocks were diluted 1:2 in media, then 100 μL of virus was added to the pre-treated cells, bringing the final drug concentrations to 0.1 nM to 100 nM, with DMSO-treated cells (no drug) serving as a reference. In addition, 12 wells of cells treated with media and no virus served as negative controls. Plates were returned to the incubator for an additional 42 hours, at which time the luciferase activity was determined using Steady-Lite Plus kits (PerkinElmer, Waltham, MA). Background luciferase activity, as measured for the negative controls, was subtracted from the activities measured for each infected well. Drug-free, DMSO-treated wells were normalized to 100% infectivity. Infectivity at each drug concentration was determined as a percentage of these drug-free infections. Drug concentration versus percent infectivity was plotted for each RT-inhibitor combination, and the data were fit to a four-parameter sigmoidal curve using KaleidaGraph 4.0 (Synergy Software, Reading, PA). The inflection point of each curve is reported as the IC50. All values are the mean of triplicate infections.
# [2] = tested on: viral vector with K103N mutant HIV-1 RT; test: single-round infectivity assay, luciferase reporter, K103N RT vector; type: cell-based; settings: Human immunodeficiency virus 1; HOS cells, reduction of luciferase reporter activity, SD in parentheses
# Text: as §1, §2, §3
# [3] = tested on: viral vector with E138K mutant HIV-1 RT; test: single-round infectivity assay, luciferase reporter, E138K RT vector; type: cell-based; settings: for EC50: Human immunodeficiency virus 1, HOS cells, reduction of luciferase reporter activity, SD in parentheses
# Text: as §1, §2, §3
# [4] = tested on: viral vector with Y181C mutant HIV-1 RT; test: single-round infectivity assay, luciferase reporter, Y181C RT vector; type: cell-based; settings: Human immunodeficiency virus 1; HOS cells, reduction of luciferase reporter activity, SD in parentheses
# Text: as §1, §2, §3
# [5] = tested on: viral vector with Y188L mutant HIV-1 RT; test: single-round infectivity assay, luciferase reporter, Y188L RT vector; type: cell-based; settings: Human immunodeficiency virus 1; HOS cells, reduction of luciferase reporter activity, SD in parentheses
# Text: as §1, §2, §3
# [6] = tested on: viral vector with L100I mutant HIV-1 RT; test: single-round infectivity assay, luciferase reporter, L100I RT vector; type: cell-based; settings: Human immunodeficiency virus 1; broader panel, SD in parentheses
# Text: as §1, §2, §3
# [7] = tested on: viral vector with V106A mutant HIV-1 RT; test: single-round infectivity assay, luciferase reporter, V106A RT vector; type: cell-based; settings: Human immunodeficiency virus 1; broader panel, SD in parentheses
# Text: as §1, §2, §3
# [8] = tested on: viral vector with H221Y mutant HIV-1 RT; test: single-round infectivity assay, luciferase reporter, H221Y RT vector; type: cell-based; settings: Human immunodeficiency virus 1; broader panel, SD in parentheses
# Text: as §1, §2, §3
# [9] = tested on: viral vector with K103N/Y181C double mutant HIV-1 RT; test: single-round infectivity assay, luciferase reporter, K103N/Y181C RT vector; type: cell-based; settings: for EC50: Human immunodeficiency virus 1, broader panel, SD in parentheses; for fold resistance / loss of potency against K103N/Y181C double mutant: relative to WT
# Text: as §1, §2, §3
# [10] = cytotoxicity assay (ATP-Lite cell viability); type: cell-based, human; settings: human, HOS cells, 48 hours, SD in parentheses
# Description: (§4) One day prior to treatment, HOS cells were prepared in 96-well plates as described for the infectivity assays, except that 12 wells per plate were treated with cell-free media to serve as negative controls. The following day, serial dilutions of drug stocks were prepared in media from 10 mM stocks in DMSO. Each well received 11 μL of the appropriate drug concentration or DMSO-treated, drug-free media. Final drug concentrations ranged from 0.5 μM to 300 μM. The drug-free wells served as references. Plates were then incubated at 37°C for 48 hours. Cell viability was determined using luciferase reporter ATP-Lite kits (PerkinElmer). As described for the infectivity assays, drug-free reference wells were normalized to 100%, and viabilities at different drug concentrations were determined as a percentage of these references. Data were plotted and analyzed in the same manner as the IC50 data, with the inflection points of the curves reported as CC50.
# HOS cells = test: cytotoxicity assay (ATP-Lite cell viability); type: cell-based, human; settings: for Therapeutic Index (T.I.): ratio of CC50/EC50 (WT); for CC50: HOS cells, 48 hours, SD in parentheses
# Description: as §4
smiles,measurement,setting,value
Cc1cc(/C=C/C#N)cc(C)c1Nc1ncc(N)c(Nc2ccc(C#N)cc2)n1 [Analogue 9],EC50,[1],0.7 nM
same,EC50,[2],0.7 nM
same,EC50,[3],2.6 nM
same,EC50,[4],4.6 nM
same,EC50,[5],18 nM
same,EC50,[6],0.5 nM
same,EC50,[7],0.9 nM
same,EC50,[8],2.8 nM
same,EC50 fold greater than that of 7 against K103N/Y181C,[9],~ 21 fold
same,EC50,[9],47 nM
same,fold resistance / loss of potency against K103N/Y181C double mutant,[9],~ 67 fold
same,CC50 at 48 h,[10],19000 nM
same,Therapeutic Index (T.I.),HOS cells,2.7x10^4
Cc1cc(/C=C/C#N)cc(C)c1Nc1nc(Nc2ccc(C#N)cc2)c2nc[nH]c2n1 [Analogue 13],EC50,[1],0.9 nM
same,EC50,[2],0.4 nM
same,EC50,[3],4.2 ± 0.3 nM
same,loss of potency against E138K,[3]; compared with rilpivirine (1),four- to fourteen-fold
same,EC50,[4],1.4 nM
same,EC50,[5],2 nM
same,EC50,[6],0.1 nM
same,EC50,[7],0.5 nM
same,EC50,[8],1.3 nM
same,EC50,[9],2.9 nM
same,CC50 at 48 h,[10],15000 nM
same,Therapeutic Index (T.I.),HOS cells,1.7x10^4
Cc1cc(/C=C/C#N)cc(C)c1Nc1nc(Nc2ccc3ncsc3c2)c2nc[nH]c2n1 [Analogue 20],EC50,[1],0.2 nM
same,EC50,[2],0.1 nM
same,EC50,[3],0.8 nM
same,EC50,[4],1 nM
same,EC50,[5],19 nM
same,EC50,[6],0.2 nM
same,EC50,[7],2.1 nM
same,EC50,[8],1.1 nM
same,EC50,[9],60 nM
same,CC50 at 48 h,[10],2000 nM
same,Therapeutic Index (T.I.),HOS cells,1.0x10^4
Cc1cc(/C=C/C#N)cc(C)c1Nc1nc(Nc2ccc3scnc3c2)c2nc[nH]c2n1 [Analogue 21],EC50,[1],0.1 nM
same,EC50,[2],0.6 nM
same,EC50,[3],1.5 nM
same,EC50,[4],1 nM
same,EC50,[5],4.4 nM
same,EC50,[6],0.6 nM
same,EC50,[7],4.6 nM
same,EC50,[8],0.6 nM
same,EC50,[9],> 100 nM
same,fold resistance / loss of potency against K103N/Y181C double mutant,[9],> 1000 fold
same,CC50 at 48 h,[10],38000 nM
same,CC50,HOS cells,> 38000 nM
same,Therapeutic Index (T.I.),HOS cells,3.8x10^5
Cc1cc(/C=C/C#N)cc(C)c1Nc1ncc2ncn(-c3ccc(C#N)cc3)c2n1 [Analogue 26],EC50,[1],4.5 nM
same,EC50,[2],6.5 nM
same,EC50,[3],25 nM
same,EC50,[4],26 nM
same,EC50,[5],91 nM
same,EC50,[6],1.6 nM
same,EC50,[7],6.5 nM
same,EC50,[8],17 nM
same,EC50,[9],> 100 nM
same,CC50 at 48 h,[10],21000 nM
same,Therapeutic Index (T.I.),HOS cells,4.7x10^3
Cc1cc(/C=C/C#N)cc(C)c1-n1cnc2cnc(Nc3ccc(C#N)cc3)nc21 [Analogue 27],EC50,[1],0.2 nM
same,EC50,[2],0.4 nM
same,EC50,[3],0.7 nM
same,EC50,[4],1.5 nM
same,EC50,[5],9.6 ± 2.2 nM
same,EC50,[6],0.2 nM
same,EC50,[7],0.2 nM
same,EC50,[8],0.4 nM
same,EC50,[9],72 nM
same,CC50 at 48 h,[10],42000 nM
same,CC50,HOS cells,> 38000 nM
same,Therapeutic Index (T.I.),HOS cells,2.1x10^5

# — PMC3549755, “A comparison of the ability of rilpivirine (TMC278) and selected analogues to inhibit clinically relevant HIV-1 reverse transcriptase mutants” (Retrovirology, 2012)
